Measurements as given in ChEMBL document CHEMBL1201862, “PubChem BioAssay data set” (2004).
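These data come from cells grown in 96-well plates and exposed to compound for 48 hours at five concentrations. GI50 marks 50% less growth.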 Activity calls are given as the source filed them. Rule as the data show it: active = GI50 up to about 1.1 µM and inactive = higher.

Key:
Experiment in all cases: NCI tumour cell line growth inhibition, 48 h
[1] = test system: HT-29
[2] = test system: LXFL 529
[3] = test system: DMS-273
[4] = test system: NCI-H522
[5] = test system: COLO 205
[6] = test system: SK-OV-3
[7] = test system: HOP-18
[8] = test system: SN12C
[9] = test system: KM12
[10] = test system: EKVX
[11] = test system: RXF 393
[12] = test system: TK-10
[13] = test system: SF-539
[14] = test system: HL-60
[15] = test system: LOX IMVI
[16] = test system: UACC-257
[17] = test system: A498
[18] = test system: 786-0
[19] = test system: IGROV-1
[20] = test system: U-251
[21] = test system: SK-MEL-28
[22] = test system: M19-MEL
[23] = test system: SW-620
[24] = test system: HOP-92
[25] = test system: K562
[26] = test system: OVCAR-8
[27] = test system: HCC 2998
[28] = test system: XF498
[29] = test system: ACHN
[30] = test system: MOLT-4
[31] = test system: OVCAR-5
[32] = test system: KM-20L2
[33] = test system: Malme-3M
[34] = test system: SR
[35] = test system: SK-MEL-2
[36] = test system: OVCAR-4
[37] = test system: A549
[38] = test system: HCT-116
[39] = test system: HOP-62
[40] = test system: SF-268
[41] = test system: CAKI-1
[42] = test system: NCI-H460
[43] = test system: SF-295
[44] = test system: SNB-19
[45] = test system: CCRF-CEM
[46] = test system: NCI-H226
[47] = test system: NCI-H23
[48] = test system: SNB-78
[49] = test system: RPMI-8226
[50] = test system: DMS-114
[51] = test system: DLD-1
[52] = test system: UO-31
[53] = test system: UACC-62
[54] = test system: OVCAR-3
[55] = test system: M14
[56] = test system: SNB-75
[57] = test system: SK-MEL-5

Measured: GI50

COC(=O)C(=NNc1ccccc1[N+](=O)[O-])C(=O)OC
inactive: [1] > 100 µM | [2] > 100 µM | [3] > 100 µM | [4] > 100 µM | [5] > 100 µM | [6] > 100 µM | [7] > 100 µM | [8] > 100 µM | [9] > 100 µM | [10] > 100 µM | [11] > 100 µM | [12] > 100 µM | [13] > 100 µM | [14] > 100 µM | [15] > 100 µM | [16] > 100 µM | [17] > 100 µM | [18] > 100 µM | [19] > 100 µM | [20] > 100 µM | [21] > 100 µM | [22] > 100 µM | [23] > 100 µM | [24] 24.1 µM | [25] > 100 µM | [26] > 100 µM | [27] > 100 µM | [28] 41.2 µM | [29] > 100 µM | [30] > 100 µM | [31] > 100 µM | [32] > 100 µM | [33] > 100 µM | [34] > 100 µM | [35] > 100 µM | [36] 88.1 µM | [37] > 100 µM | [38] > 100 µM | [39] > 100 µM | [40] > 100 µM | [41] > 100 µM | [42] > 100 µM | [43] > 100 µM | [44] > 100 µM | [45] > 100 µM | [46] > 100 µM | [47] > 100 µM

COc1cc2cccc(/N=C\c3cccc(OC)c3OC(C)C)c2cc1OC
inactive: [1] 23.2 µM | [2] 14.7 µM | [4] 17.9 µM | [5] 36.2 µM | [6] 25.2 µM | [8] 40.1 µM | [9] 19 µM | [10] 52 µM | [48] 44.7 µM | [12] 25.6 µM | [49] 13.2 µM | [16] 20.8 µM | [17] 56.9 µM | [18] 18.5 µM | [19] 24 µM | [20] 19.7 µM | [50] 17 µM | [51] 25.6 µM | [21] 24.3 µM | [52] 30.1 µM | [22] 21.3 µM | [23] 21 µM | [25] 15.6 µM | [26] 21.5 µM | [53] 19.6 µM | [27] 35.9 µM | [28] 26.8 µM | [54] 19.4 µM | [29] 36.6 µM | [30] 19.1 µM | [31] > 100 µM | [32] 51.8 µM | [33] 22.3 µM | [35] 18 µM | [55] 17.9 µM | [36] 18.7 µM | [37] 29.7 µM | [56] 21.7 µM | [57] 24.8 µM | [39] 26.5 µM | [40] 24.4 µM | [41] 24 µM | [42] 33.9 µM | [43] 19 µM | [45] 21.2 µM | [47] 23.4 µM
